Measurements as given in patent US20110230481A2, “DERIVATIVES OF TETRABROMOBENZIMIDAZOLE, A PROCESS FOR THE PREPARATION THEREOF, A PHARMACEUTICAL COMPOSITION COMPRISING THE SAME, A METHOD OF USING THE SAME, A METHOD FOR MODULATING OR REGULATING SERINE/THREONINE KINASES, AND SERINE/THREONINE KINASES MODULATING AGENT” (SELVITA S.A., priority 2009, published 2011).

What was measured:
Experiment in all cases: KINOMEscan Max
Assay type in all cases: binding
DDR2 = biological target: T1, DDR2 (Homo sapiens, UniProt Q16832)
T1 construct: purchased Ambit (KINOMEscan Max panel service)
How it was run: (§1)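 Binding was measured by competition: compounds were tested for their ability to displace DNA-tagged kinases from an immobilized ligand directed at the active site, with quantitative PCR of the tag as read-out.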

MLK3 = MLK3 (Homo sapiens, UniProt Q16584); conditions: 1 μM
How it was run: as §1

ULK1 = biological target: T2, ULK1 (Homo sapiens, UniProt O75385); conditions: 1 μM
T2 construct: DNA tag (qPCR read-out)
How it was run: as §1

INSRR = biological target: T3, INSRR (Homo sapiens, UniProt P14616)
T3 construct: purchased Ambit Kinomescan (contract panel, KINOMEscan Max)
How it was run: as §1

DYRK1A = biological target: T4, DYRK1A (Homo sapiens, UniProt Q13627)
T4 construct: DNA tag (qPCR read-out); purchased Ambit Kinomescan
How it was run: as §1

ADCK4 = biological target: T5, ADCK4 (Homo sapiens, UniProt Q96D53)
T5 construct: DNA tag (qPCR read-out)
How it was run: as §1

SIK = biological target: T6, SIK (Homo sapiens, UniProt P57059); conditions: 1 μM
T6 construct: DNA tag (qPCR read-out)
How it was run: as §1

AKT1 = biological target: T7, AKT1 (Homo sapiens, UniProt P31749)
T7 construct: purchased Ambit (KINOMEscan Max service)
How it was run: as §1

CSNK1G3 = CSNK1G3 (Homo sapiens, UniProt Q9Y6M4); conditions: 1 μM
How it was run: as §1

EPHB6 = EPHB6 (Homo sapiens, UniProt O15197)
How it was run: as §1

EPHA7 = biological target: T8, EPHA7 (Homo sapiens, UniProt Q15375)
T8 construct: purchased Ambit (KINOMEscan Max panel service)
How it was run: as §1

KIT(V559D.T670I) = biological target: T9, KIT(V559D.T670I) (Homo sapiens, UniProt P10721, T670I/V559D)
T9 construct: purchased Ambit Kinomescan (contract panel)
How it was run: as §1

YANK1 = biological target: T10, YANK1 (Homo sapiens, UniProt Q8WU08)
T10 construct: purchased Ambit Kinomescan (contract screening service)
How it was run: as §1

MAK = MAK (Homo sapiens, UniProt P20794)
How it was run: as §1

NEK7 = biological target: T11, NEK7 (Homo sapiens, UniProt Q8TDX7)
T11 construct: DNA tag (qPCR read-out)
How it was run: as §1

MST2 = MST2 (Homo sapiens, UniProt Q13188)
How it was run: as §1

PIK3CA(H1047L) = biological target: T12, PIK3CA(H1047L) (Homo sapiens, UniProt P42336, H1047L)
T12 construct: DNA tag (qPCR read-out)
How it was run: as §1

[1] = biological target: T13, RSK3(Kin.Dom.2-C-terminal) (Homo sapiens, UniProt Q15349)
T13 construct: RSK3(Kin.Dom.2-C-terminal); purchased Ambit Kinomescan (contract screening)
How it was run: as §1

ACVR2A = biological target: T14, ACVR2A (Homo sapiens, UniProt P27037)
T14 construct: DNA tag (qPCR label); purchased Ambit Kinomescan (contract screening)
How it was run: as §1

PIK3C2G = biological target: T15, PIK3C2G (Homo sapiens, UniProt O75747)
T15 construct: DNA tag (qPCR read-out)
How it was run: as §1

PKAC-alpha = biological target: T16, PKAC-alpha (Homo sapiens, UniProt P17612)
T16 construct: purchased Ambit (KINOMEscan Max service)
How it was run: as §1

PKN2 = biological target: T17, PKN2 (Homo sapiens, UniProt Q16513)
T17 construct: purchased Ambit (KINOMEscan Max service)
How it was run: as §1

CSNK1E = biological target: T18, CSNK1E (Homo sapiens, UniProt P49674)
T18 construct: DNA tag (qPCR read-out)
How it was run: as §1

FLT3(D835Y) = biological target: T19, FLT3(D835Y) (Homo sapiens, UniProt P36888, D835Y)
T19 construct: DNA tag (qPCR read-out); purchased Ambit Kinomescan
How it was run: as §1

TRPM6 = TRPM6 (Homo sapiens, UniProt Q9BX84)
How it was run: as §1

NDR2 = NDR2 (Homo sapiens, UniProt Q9Y2H1)
How it was run: as §1

[2] = biological target: T20, RPS6KA4(Kin.Dom.1-N-terminal) (Homo sapiens, UniProt O75676)
T20 construct: RPS6KA4(Kin.Dom.1-N-terminal); DNA tag (qPCR read-out)
How it was run: as §1

TEC = biological target: T21, TEC (Homo sapiens, UniProt P42680)
T21 construct: purchased Ambit Kinomescan (contract screening service)
How it was run: as §1

LZK = biological target: T22, LZK (Homo sapiens, UniProt O43283); conditions: 1 μM
T22 construct: purchased Ambit Kinomescan (contract panel)
How it was run: as §1

MAP4K5 = MAP4K5 (Homo sapiens, UniProt Q9Y4K4)
How it was run: as §1

EGFR(L858R) = EGFR(L858R) (Homo sapiens, UniProt P00533, L858R); conditions: 1 μM
How it was run: as §1

ROCK1 = biological target: T23, ROCK1 (Homo sapiens, UniProt Q13464)
T23 construct: DNA tag (qPCR read-out)
How it was run: as §1

PKMYT1 = PKMYT1 (Homo sapiens, UniProt Q99640); conditions: 1 μM
How it was run: as §1

T20 sequence (O75676 33-301 limits assumed): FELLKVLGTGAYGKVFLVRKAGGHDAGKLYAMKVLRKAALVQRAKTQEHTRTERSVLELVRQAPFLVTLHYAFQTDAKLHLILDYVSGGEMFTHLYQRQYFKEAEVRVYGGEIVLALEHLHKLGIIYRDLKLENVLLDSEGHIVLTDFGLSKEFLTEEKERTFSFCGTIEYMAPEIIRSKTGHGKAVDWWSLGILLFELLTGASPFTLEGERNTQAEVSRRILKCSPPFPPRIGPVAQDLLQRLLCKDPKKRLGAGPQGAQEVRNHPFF
T1 sequence (Q16832 22-855): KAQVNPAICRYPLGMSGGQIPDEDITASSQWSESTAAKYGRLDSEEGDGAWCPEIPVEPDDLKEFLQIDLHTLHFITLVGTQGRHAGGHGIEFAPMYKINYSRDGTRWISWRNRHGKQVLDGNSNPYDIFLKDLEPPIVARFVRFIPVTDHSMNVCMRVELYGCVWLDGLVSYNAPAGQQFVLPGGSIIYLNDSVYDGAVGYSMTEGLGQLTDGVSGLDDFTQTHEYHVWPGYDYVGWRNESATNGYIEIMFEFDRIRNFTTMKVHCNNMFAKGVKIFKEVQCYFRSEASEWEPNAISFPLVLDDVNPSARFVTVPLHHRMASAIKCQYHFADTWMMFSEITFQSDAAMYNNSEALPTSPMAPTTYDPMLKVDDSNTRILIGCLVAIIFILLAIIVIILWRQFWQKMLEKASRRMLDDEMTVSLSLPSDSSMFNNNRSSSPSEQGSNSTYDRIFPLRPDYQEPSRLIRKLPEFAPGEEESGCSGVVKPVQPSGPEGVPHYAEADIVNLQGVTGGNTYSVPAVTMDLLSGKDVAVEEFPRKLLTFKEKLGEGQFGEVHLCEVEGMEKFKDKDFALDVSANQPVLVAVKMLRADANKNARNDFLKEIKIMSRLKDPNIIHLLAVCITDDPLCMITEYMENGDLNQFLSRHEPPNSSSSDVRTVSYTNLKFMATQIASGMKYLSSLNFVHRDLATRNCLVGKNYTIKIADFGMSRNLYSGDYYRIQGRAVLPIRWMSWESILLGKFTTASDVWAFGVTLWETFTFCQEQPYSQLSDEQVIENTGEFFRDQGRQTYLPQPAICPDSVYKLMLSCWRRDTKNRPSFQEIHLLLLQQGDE
T23 sequence (Q13464 whole entry): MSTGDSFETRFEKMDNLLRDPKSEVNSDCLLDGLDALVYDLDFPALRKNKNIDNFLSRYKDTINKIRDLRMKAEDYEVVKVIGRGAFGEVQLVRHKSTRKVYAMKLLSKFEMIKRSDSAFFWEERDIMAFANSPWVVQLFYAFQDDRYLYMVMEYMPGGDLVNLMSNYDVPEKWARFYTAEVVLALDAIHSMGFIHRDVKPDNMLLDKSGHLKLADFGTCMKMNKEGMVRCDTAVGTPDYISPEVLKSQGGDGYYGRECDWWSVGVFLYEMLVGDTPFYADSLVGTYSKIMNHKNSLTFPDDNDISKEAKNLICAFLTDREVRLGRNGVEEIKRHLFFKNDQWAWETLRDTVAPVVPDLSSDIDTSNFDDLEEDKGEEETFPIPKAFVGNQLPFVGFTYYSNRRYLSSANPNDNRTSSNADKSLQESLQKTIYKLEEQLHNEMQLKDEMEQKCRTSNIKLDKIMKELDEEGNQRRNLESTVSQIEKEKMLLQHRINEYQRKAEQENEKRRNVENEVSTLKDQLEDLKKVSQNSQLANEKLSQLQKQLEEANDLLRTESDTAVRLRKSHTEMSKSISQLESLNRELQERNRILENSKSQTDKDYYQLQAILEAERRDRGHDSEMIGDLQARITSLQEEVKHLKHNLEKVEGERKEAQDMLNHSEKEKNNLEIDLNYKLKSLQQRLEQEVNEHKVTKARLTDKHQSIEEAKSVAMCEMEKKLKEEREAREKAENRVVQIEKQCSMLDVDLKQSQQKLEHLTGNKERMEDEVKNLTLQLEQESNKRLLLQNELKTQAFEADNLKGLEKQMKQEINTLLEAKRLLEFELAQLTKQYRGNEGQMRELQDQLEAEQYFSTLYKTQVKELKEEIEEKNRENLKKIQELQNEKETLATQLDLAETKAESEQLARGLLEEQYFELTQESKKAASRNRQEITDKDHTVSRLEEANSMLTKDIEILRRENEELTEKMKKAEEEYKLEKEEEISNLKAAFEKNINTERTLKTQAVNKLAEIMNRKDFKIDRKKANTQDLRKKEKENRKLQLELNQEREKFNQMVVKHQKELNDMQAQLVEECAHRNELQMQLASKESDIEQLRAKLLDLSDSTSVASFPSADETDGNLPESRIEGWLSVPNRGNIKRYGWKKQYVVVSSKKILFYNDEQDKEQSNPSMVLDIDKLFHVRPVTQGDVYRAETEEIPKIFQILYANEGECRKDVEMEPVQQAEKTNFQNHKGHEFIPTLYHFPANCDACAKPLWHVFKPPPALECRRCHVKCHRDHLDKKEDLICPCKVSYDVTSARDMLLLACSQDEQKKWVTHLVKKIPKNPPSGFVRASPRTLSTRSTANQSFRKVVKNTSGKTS
Sequence of PKMYT1 (Q99640 whole entry): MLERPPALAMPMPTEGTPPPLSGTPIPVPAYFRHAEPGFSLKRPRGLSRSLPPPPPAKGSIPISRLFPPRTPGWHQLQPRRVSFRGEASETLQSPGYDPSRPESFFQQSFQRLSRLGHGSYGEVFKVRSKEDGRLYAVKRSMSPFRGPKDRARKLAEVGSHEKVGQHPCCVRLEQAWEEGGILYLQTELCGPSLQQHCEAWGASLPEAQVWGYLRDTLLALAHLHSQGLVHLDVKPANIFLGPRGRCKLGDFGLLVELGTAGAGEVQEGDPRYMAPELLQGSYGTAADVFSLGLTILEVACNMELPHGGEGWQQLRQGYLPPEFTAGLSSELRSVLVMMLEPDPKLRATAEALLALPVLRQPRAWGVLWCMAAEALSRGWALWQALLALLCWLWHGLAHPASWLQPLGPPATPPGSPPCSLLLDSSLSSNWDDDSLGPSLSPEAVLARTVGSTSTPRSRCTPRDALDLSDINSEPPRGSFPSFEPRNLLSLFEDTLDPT
Sequence of MAK (P20794 whole entry): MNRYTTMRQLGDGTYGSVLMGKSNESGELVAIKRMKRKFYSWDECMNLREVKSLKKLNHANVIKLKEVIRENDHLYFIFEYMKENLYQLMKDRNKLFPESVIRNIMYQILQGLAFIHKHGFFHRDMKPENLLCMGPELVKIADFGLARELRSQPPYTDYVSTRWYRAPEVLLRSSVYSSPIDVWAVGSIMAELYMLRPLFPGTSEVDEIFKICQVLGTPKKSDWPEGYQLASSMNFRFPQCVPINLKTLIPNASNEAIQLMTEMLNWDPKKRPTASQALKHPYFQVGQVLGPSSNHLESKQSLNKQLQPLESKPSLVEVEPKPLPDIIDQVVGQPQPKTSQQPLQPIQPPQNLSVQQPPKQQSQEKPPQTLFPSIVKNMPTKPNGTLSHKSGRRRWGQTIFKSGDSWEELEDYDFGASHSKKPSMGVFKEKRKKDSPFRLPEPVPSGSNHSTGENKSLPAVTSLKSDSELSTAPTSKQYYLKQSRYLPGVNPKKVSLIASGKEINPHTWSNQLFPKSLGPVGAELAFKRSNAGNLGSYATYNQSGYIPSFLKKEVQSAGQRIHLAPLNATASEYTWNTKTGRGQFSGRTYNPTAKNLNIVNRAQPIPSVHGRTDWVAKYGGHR
Sequence of MST2 (Q13188 whole entry): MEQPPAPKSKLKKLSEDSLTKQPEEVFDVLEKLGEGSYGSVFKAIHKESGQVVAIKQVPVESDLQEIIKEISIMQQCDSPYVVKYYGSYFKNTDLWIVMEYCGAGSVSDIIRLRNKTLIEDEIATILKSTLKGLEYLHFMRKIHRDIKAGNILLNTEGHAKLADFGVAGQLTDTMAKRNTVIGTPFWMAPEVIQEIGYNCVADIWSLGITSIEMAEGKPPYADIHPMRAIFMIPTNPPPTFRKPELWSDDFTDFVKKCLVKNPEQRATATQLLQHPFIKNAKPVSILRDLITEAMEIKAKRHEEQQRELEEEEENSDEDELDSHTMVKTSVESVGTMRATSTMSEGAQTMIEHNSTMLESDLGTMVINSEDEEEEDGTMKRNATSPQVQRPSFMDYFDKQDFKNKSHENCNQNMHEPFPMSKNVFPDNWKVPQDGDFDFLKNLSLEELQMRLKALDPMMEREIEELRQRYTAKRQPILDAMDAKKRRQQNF
Sequence of NDR2 (Q9Y2H1 whole entry): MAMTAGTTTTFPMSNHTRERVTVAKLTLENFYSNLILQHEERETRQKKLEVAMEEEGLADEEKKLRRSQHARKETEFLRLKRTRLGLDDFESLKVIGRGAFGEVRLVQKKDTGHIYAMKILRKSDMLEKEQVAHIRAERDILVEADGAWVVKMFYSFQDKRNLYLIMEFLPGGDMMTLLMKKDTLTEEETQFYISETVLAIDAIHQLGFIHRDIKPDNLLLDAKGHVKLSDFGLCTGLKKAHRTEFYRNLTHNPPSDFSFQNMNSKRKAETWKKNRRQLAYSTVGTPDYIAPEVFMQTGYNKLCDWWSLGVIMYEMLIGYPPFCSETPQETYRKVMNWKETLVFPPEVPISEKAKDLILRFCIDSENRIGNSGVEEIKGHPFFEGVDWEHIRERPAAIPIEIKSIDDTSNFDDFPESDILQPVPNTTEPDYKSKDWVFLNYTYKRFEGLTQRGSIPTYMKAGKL
T18 sequence (P49674 whole entry): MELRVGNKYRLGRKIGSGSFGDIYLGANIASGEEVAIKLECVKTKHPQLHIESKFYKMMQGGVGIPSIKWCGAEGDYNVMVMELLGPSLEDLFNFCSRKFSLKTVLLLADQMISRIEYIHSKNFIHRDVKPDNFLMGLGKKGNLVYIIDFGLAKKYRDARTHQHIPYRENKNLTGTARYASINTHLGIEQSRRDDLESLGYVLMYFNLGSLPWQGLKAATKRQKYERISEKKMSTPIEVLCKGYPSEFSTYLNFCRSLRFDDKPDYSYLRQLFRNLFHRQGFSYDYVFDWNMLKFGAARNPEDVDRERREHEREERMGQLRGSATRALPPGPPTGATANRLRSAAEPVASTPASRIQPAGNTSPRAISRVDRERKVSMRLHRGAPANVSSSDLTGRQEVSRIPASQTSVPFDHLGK

## NCCCNc1nc2c(Br)c(Br)c(Br)c(Br)c2[nH]1 [Compound 11, N-(3-aminopropyl)-4,5,6,7-tetrabromo-1H-benzo[d]imidazol-2-amine]
DDR2
  remaining binding at 1 µM: 100%
MLK3
  % binding: 95%
ULK1
  % binding: 30%
INSRR
  remaining binding at 1 µM: 100%
DYRK1A
  remaining binding at 1 µM: 2.6%
ADCK4
  remaining binding at 1 µM: 87%
SIK
  % binding: 100%
AKT1
  remaining binding at 1 µM: 70%
CSNK1G3
  % binding: 92%
EPHB6
  remaining binding at 1 µM: 95%
EPHA7
  remaining binding at 1 µM: 100%
KIT(V559D.T670I)
  remaining binding at 1 µM: 100%
YANK1
  remaining binding at 1 µM: 100%
MAK
  remaining binding at 1 µM: 79%
NEK7
  remaining binding at 1 µM: 86%
MST2
  remaining binding at 1 µM: 100%
PIK3CA(H1047L)
  remaining binding at 1 µM: 100%
[1]
  remaining binding at 1 µM: 97%
ACVR2A
  remaining binding at 1 µM: 100%
PIK3C2G
  remaining binding at 1 µM: 100%
PKAC-alpha
  remaining binding at 1 µM: 68%
PKN2
  remaining binding at 1 µM: 80%
CSNK1E
  remaining binding at 1 µM: 34%
FLT3(D835Y)
  remaining binding at 1 µM: 10%
TRPM6
  remaining binding at 1 µM: 91%
NDR2
  remaining binding at 1 µM: 100%
[2]
  remaining binding at 1 µM: 55%
TEC
  remaining binding at 1 µM: 100%
LZK
  % binding: 100%
MAP4K5
  remaining binding at 1 µM: 98%
EGFR(L858R)
  % binding: 96%
ROCK1
  remaining binding at 1 µM: 28%
PKMYT1
  % binding: 99%
